# Test results published in article PMC7497253, “Structure‐Based Macrocyclization of Substrate Analogue NS2B‐NS3 Protease Inhibitors of Zika, West Nile and Dengue viruses” (Chemmedchem, 2020).
# Where two headings read alike, the source gives them in different places. Starred links: 1 amine or outer side, 2 acyl side, 3 side chain; linkers in the order of their positions; H or OH if unused. Non-standard residues stand in square brackets, D forms with d. Residues, ends and D or L forms follow the SMILES beside them. dεLys(Nα-amidino) = N=C(N)N[C@H](CCCCN[*:1])C(=O)[*:2]; βAla = NCCC(=O)O
# How the values were obtained:
# Format in all cases: biochemical
# [1] = target: T1, bZiPro (unlinked binary Zika virus NS2B-NS3 protease) (Zika virus, UniProt A0A024B7W1); test: Enzyme kinetics with bZiPro, fluorogenic substrate Phac-Leu-Lys-Lys-Arg-AMC
# T1 construct: The viral protease consists of the N‐terminal third of the nonstructural protein NS3; the NS2B construct ends at Glu96; His6 (cleaved yes); made in house
# Description: (§1) Enzyme kinetics. Measurements with bZiPro15 and the covalent WNV NS2B‐NS3 construct^10 were performed at room temperature in black 96 well plates using a Fluoroskan Ascent® plate reader (Thermo Fisher Scientific, Vantaa, Finland) with λ ex at 355 nm and λ em at 460 nm. Each well contained 125 μL inhibitor dissolved in buffer (for bZiPro: 20 mM Tris×HCl pH 8.5, 2 mM DTT, 10 w/v glycerol and 0.01 w/v Triton X‐100;18 for WNV protease: 100 mM Tris×HCl pH 8.5, containing 32 w/v glycerol and 0.01 w/v Triton X‐10012) and 50 μL substrate Phac‐Leu‐Lys‐Lys‐Arg‐AMC12 (40 μM for bZiPro (10 μM in assay, K M=1.4 μM) and 400 μM for the WNV protease (100 μM in assay, K M=53 μM)). The measurements were started by addition of 25 μL enzyme solution (16 nM for bZiPro (2.0 nM in assay), and 64 nM for the WNV protease (8.0 nM in assay)). Data points were collected each 15 s over a period of 10 min using eight different inhibitor concentrations. […] The K i values and their standard deviation were obtained from at least three independent measurements.(1) vi=Vmax×[S]/KM1+[I]/Ki+[S]
# The constants K M and V max were obtained from independent measurements with six different substrate concentrations in absence of inhibitor. For inhibitor 10 with bZiPro, additional measurements at three substrate concentrations (10, 5, and 2.5 μM in assay) were performed to obtain the Dixon plot shown in Figure 4.
# [2] = target: T2, WNV NS2B-NS3 protease (WNV-Pro) (West Nile virus, UniProt P06935); test: Enzyme kinetics with the covalent WNV NS2B-NS3 construct, substrate Phac-Leu-Lys-Lys-Arg-AMC
# T2 construct: NS3 has to form a complex with its cofactor NS2B to achieve proteolytic activity; The viral protease consists of the N‐terminal third of the nonstructural protein NS3
# Description: as §1
# [3] = target: T3, bD4Pro (unlinked binary dengue-4 virus NS2B-NS3 protease) (Dengue virus type 4, UniProt Q2YHF2); test: Enzyme kinetics with bD4Pro, substrate Benzoyl-Nle-Lys-Arg-Arg-AMC
# T3 construct: The viral protease consists of the N‐terminal third of the nonstructural protein NS3; NS3 has to form a complex with its cofactor NS2B to achieve proteolytic activity; His6 (cleaved yes); made in house
# T3 sequence (Q2YHF2 1475-1652 limits assumed): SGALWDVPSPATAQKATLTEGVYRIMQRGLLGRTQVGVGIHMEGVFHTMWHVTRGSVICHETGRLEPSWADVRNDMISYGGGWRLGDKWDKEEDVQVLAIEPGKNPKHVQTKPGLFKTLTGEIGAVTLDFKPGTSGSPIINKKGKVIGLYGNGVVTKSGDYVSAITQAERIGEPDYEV
# T3 sequence (Q2YHF2 1397-1436 limits assumed): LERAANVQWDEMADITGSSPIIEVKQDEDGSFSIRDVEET
# Description: Measurements with the dengue 4 virus protease construct (bD4Pro; expressed and purified by a similar methodology as described for bZiPro15 with slight modification of using Tobacco Etch Virus (TEV) protease instead of thrombin for His6‐tag cleavage) were performed in a Cytation 3 Mulitmode plate reader with λ ex at 380 nm and λ em at 460 nm. Assays were carried out as triplicate at 37 °C. Before measurement, the protease (final assay concentration 3 nM) was preincubated with varying concentrations of inhibitors in assay buffer (20 mM Tris pH 8.5, 10 % glycerol, 0.01 % Triton X‐100) for 1 h at room temperature in Corning black clear bottom 96‐well plates. The reaction was started by addition of the substrate Benzoyl‐Nle‐Lys‐Arg‐Arg‐AMC (final assay concentration 50 μM, K M=48.4 μM). Fluorescent readings were recorded at 1‐minute intervals over 10 minutes. The steady‐state rates v i in presence of inhibitor were calculated from the slopes of the progress curves using Graph Pad Prism. The v i values were fitted to Equation (2) as function of the inhibitor concentration [I] providing the IC50 values, where v 0 is the rate in absence of inhibitor and s a slope factor. The obtained IC50 values were finally converted into K i values by the Cheng‐Prusoff Equation (2).(2) vi=v0/1+I/IC50^s (3) Ki=IC50/1+S/KM
# [4] = K i bZiPro, mean±SD of at least three independent measurements, substrate 10 μM in assay, room temperature, pH 8.5
# [5] = mean±SD of at least three independent measurements, substrate 10 μM in assay, room temperature, pH 8.5, read-out: K i bZiPro
# [6] = mean±SD of at least three independent measurements, substrate 100 μM in assay, room temperature, pH 8.5, read-out: K i WNV-Pro
# [7] = mean±SD of at least three independent measurements, 37 °C, IC50 converted into K i by Cheng-Prusoff, read-out: K i bD4Pro
# T2 sequence (P06935 1424-1463): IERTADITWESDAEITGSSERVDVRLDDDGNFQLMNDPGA
# T2 sequence (P06935 1502-1679): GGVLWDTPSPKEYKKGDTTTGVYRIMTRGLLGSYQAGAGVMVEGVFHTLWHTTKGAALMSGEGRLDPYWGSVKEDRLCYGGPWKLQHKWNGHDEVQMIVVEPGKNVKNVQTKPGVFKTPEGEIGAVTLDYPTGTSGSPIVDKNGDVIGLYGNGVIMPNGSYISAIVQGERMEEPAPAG
# T1 sequence (A0A024B7W1 1503-1680 limits assumed): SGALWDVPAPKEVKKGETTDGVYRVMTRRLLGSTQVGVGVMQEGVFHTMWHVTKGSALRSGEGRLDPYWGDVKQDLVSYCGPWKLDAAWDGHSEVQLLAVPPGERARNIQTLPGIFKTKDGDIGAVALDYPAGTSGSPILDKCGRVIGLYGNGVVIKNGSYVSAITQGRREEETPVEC
# T1 sequence (A0A024B7W1 1425-1464 limits assumed): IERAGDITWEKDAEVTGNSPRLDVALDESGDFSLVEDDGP
Compound,"Ki [1, 4]",Ki [2],Ki [3],"Ki ([1]; K i against bZiPro / ZIKV protease, value given in running text)","Ki [1, 5]","Ki [2, 6]","Ki [3, 7]"
NCCCC[C@@H]1NC(=O)Cc2cccc(c2)CNC(=O)CNC(=O)[C@H](NC(N)=O)CCCCNC(=O)[C@H](CCCCN)NC1=O [Inhibitor 21],12000 nM,68000 nM,135000 nM,–,–,–,–
N=C(N)N[C@@H]1CCCCNC(=O)[C@H](CCCCN)NC(=O)[C@H](CCCCN)NC(=O)Cc2ccc(cc2)CNC(=O)CCCNC1=O [Inhibitor 4],70.1 ± 9.2 nM,4970 ± 500 nM,4730 ± 500 nM,–,–,–,–
N=C(N)N[C@@H]1CCCCNC(=O)[C@H](CCCCN)NC(=O)[C@H](CCCCN)NC(=O)Cc2cccc(c2)NC(=O)CCNC1=O [Inhibitor 13],80.2 ± 9.7 nM,4280 ± 310 nM,7960 ± 550 nM,80 nM,–,–,–
NCCCC[C@@H]1NC(=O)Cc2ccc(cc2)CNC(=O)CCCNC(=O)[C@H](N)CCCNC(=O)[C@H](CCCCN)NC1=O [Inhibitor 7],–,–,–,–,13200 ± 1700 nM,31700 ± 3600 nM,30600 ± 3900 nM
CC(C)[C@H]1NC(=O)[C@H](NC(=N)N)CCCCNC(=O)[C@H](CCCCN)NC(=O)[C@H](CCCCN)NC(=O)Cc2cccc(c2)CNC1=O [Inhibitor 18],7.74 ± 0.66 nM,439 ± 28 nM,486 ± 27 nM,–,–,–,–
N=C(N)N[C@@H]1CCCCNC(=O)[C@H](CCCCN)NC(=O)[C@H](CCCCN)NC(=O)Cc2cccc(c2)CNC(=O)CCNC1=O [Inhibitor 9],3.88 ± 0.81 nM,374 ± 44 nM,182 ± 5 nM,–,–,–,–
N=C(N)N[C@@H]1CCCCNC(=O)[C@H](CCCCN)NC(=O)[C@H](CCCCN)NC(=O)CNC(=O)CNC(=O)CNC1=O [Inhibitor 25] (cyclo(GGGKK[dεLys(Nα-amidino)])),3.74 ± 0.2 nM,129 ± 7 nM,378 ± 27 nM,–,–,–,–
N=C(N)N[C@@H]1CCCCNC(=O)[C@H](CCCCN)NC(=O)[C@H](CCCCN)NC(=O)CNC(=O)CCNC(=O)CNC1=O [Inhibitor 27] (cyclo(G[βAla]GKK[dεLys(Nα-amidino)])),–,–,–,–,7.35 ± 0.39 nM,468 ± 3 nM,815 ± 79 nM
N=C(N)N[C@@H]1CCCNC(=O)[C@H](CCCCN)NC(=O)[C@H](CCCCN)NC(=O)Cc2ccc(cc2)CNC(=O)CCCNC1=O [Inhibitor 5],3610 ± 1330 nM,22000 ± 4000 nM,60500 ± 5700 nM,–,–,–,–
N=C(N)N[C@H]1CCCCNC(=O)[C@H](CCCCN)NC(=O)[C@H](CCCCN)NC(=O)Cc2ccc(cc2)CNC(=O)CCCNC1=O [Inhibitor 2],91.8 ± 6 nM,6300 ± 490 nM,11000 ± 1000 nM,–,–,–,–
C[C@@H]1NC(=O)[C@H](NC(=N)N)CCCCNC(=O)[C@H](CCCCN)NC(=O)[C@H](CCCCN)NC(=O)Cc2cccc(c2)CNC1=O [Inhibitor 15],18.2 ± 5.1 nM,1390 ± 320 nM,3600 ± 380 nM,–,–,–,–
N=C(N)N[C@@H]1CCCCNC(=O)[C@H](CCCCN)NC(=O)[C@H](CCCCN)NC(=O)CCCCCNC(=O)CNC1=O [Inhibitor 24],15.4 ± 2.6 nM,973 ± 173 nM,1990 ± 90 nM,–,–,–,–
N=C(N)N[C@@H]1CCCCNC(=O)[C@H](CCCCN)NC(=O)[C@H](CCCCN)NC(=O)Cc2cccc(c2)CNC(=O)[C@H]2CCCN2C1=O [Inhibitor 19],17.7 ± 0.5 nM,850 ± 68 nM,4080 ± 260 nM,–,–,–,–
N=C(N)N[C@@H]1CCCCNC(=O)[C@H](CCCCN)NC(=O)[C@H](CCCCN)NC(=O)CNC(=O)CNC(=O)CCNC1=O [Inhibitor 28] (cyclo([βAla]GGKK[dεLys(Nα-amidino)])),–,–,–,–,12.8 ± 0.5 nM,974 ± 134 nM,2720 ± 190 nM
